In ChEMBL document CHEMBL5104195, “Discovery of Orally Bioavailable SOS1 Inhibitors for Suppressing KRAS-Driven Carcinoma” (J Med Chem, 2022):

Key:
[1] = Elimination rate constant in ICR mouse at 50 mg/kg, po measured up to 24 hrs by LC-MS/MS analysis; conditions: in vivo
[2] = Half life in ICR mouse at 50 mg/kg, po measured up to 24 hrs by LC-MS/MS analysis; conditions: in vivo
[3] = MRT in ICR mouse at 50 mg/kg, po measured up to 24 hrs by LC-MS/MS analysis; conditions: in vivo
[4] = Toxicity in BALB/c nude mouse xenografted with human MIA PaCa-21 cells expressing KRAS G12C mutant assessed as animal death at 50 mg/kg, po qd measured on day 21; conditions: in vivo, 504 h
[5] = Toxicity in BALB/c nude mouse xenografted with human MIA PaCa-21 cells expressing KRAS G12C mutant assessed as weight loss at 50 mg/kg, po qd measured on day 21; conditions: in vivo
[6] = Plasma protein binding in rat at 2 uM preincubated for 1 hr by balanced dialysis based LC-MS/MS analysis
[7] = Plasma protein binding in mouse at 2 uM preincubated for 1 hr by balanced dialysis based LC-MS/MS analysis
[8] = Plasma protein binding in dog at 2 uM preincubated for 1 hr by balanced dialysis based LC-MS/MS analysis
[9] = Plasma protein binding in monkey at 2 uM preincubated for 1 hr by balanced dialysis based LC-MS/MS analysis; conditions: rhesus monkey
Cytochrome P450 3A4 [10] = target: T1, Cytochrome P450 3A4 (Homo sapiens, UniProt P08684); assay: Inhibition of CYP3A4 in human liver microsomes at 10 uM using midazolam as substrate preincubated for 10 mins followed by NADPH addition by LC/MS analysis
Cytochrome P450 1A2 = target: T2, Cytochrome P450 1A2 (Homo sapiens, UniProt P05177); assay: Inhibition of CYP1A2 in human liver microsomes at 10 uM using phenacetin as substrate preincubated for 10 mins followed by NADPH addition by LC/MS analysis
T2 sequence (P05177 whole entry): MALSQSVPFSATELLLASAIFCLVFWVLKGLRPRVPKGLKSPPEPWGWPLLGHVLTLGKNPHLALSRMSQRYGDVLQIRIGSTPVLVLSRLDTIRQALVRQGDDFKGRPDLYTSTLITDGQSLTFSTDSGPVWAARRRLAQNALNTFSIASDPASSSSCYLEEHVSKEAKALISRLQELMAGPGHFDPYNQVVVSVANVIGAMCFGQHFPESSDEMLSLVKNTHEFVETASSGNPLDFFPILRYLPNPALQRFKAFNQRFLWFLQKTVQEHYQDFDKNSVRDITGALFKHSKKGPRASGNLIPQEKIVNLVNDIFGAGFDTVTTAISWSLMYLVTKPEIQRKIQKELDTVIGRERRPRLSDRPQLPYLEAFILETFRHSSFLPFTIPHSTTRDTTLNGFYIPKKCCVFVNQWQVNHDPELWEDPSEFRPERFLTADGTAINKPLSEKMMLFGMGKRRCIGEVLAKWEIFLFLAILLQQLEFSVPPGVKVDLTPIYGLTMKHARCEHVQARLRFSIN

Cytochrome P450 2C9 [11] = target: T3, Cytochrome P450 2C9 (Homo sapiens, UniProt P11712); assay: Inhibition of CYP2C9 in human liver microsomes at 10 uM using diclofenac as substrate preincubated for 10 mins followed by NADPH addition by LC/MS analysis
Cytochrome P450 2C8 [12] = target: T4, Cytochrome P450 2C8 (Homo sapiens, UniProt P10632); assay: Inhibition of CYP2C8 in human liver microsomes at 10 uM using amodiaquine as substrate preincubated for 10 mins followed by NADPH addition by LC/MS analysis
T4 sequence (P10632 whole entry): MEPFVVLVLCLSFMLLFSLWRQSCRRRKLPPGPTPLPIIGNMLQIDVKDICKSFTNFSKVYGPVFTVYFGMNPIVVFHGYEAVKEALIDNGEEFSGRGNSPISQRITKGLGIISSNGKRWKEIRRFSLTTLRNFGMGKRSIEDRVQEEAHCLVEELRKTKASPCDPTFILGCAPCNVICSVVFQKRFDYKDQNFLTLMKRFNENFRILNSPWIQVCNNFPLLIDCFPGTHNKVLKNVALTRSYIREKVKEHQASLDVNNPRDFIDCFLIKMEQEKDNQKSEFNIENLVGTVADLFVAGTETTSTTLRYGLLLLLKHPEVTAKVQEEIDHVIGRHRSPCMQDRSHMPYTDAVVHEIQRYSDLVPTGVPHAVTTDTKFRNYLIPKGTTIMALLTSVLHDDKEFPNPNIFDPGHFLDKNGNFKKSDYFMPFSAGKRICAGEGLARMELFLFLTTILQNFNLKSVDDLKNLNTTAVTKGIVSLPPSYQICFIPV

Cytochrome P450 2D6 [13] = target: T5, Cytochrome P450 2D6 (Homo sapiens, UniProt P10635); assay: Inhibition of CYP2D6 in human liver microsomes at 10 uM using dextromethorphan as substrate preincubated for 10 mins followed by NADPH addition by LC/MS analysis
Cytochrome P450 2C9 [14] = target: T3, Cytochrome P450 2C9; assay: Time-dependent inhibition of CYP2C9 (unknown origin) at 2 ul pre-incubated for 30 mins in presence or absence of NADPH incubated for 10 mins by LC/MS analysis
Cytochrome P450 2C8 [15] = target: T4, Cytochrome P450 2C8; assay: Time-dependent inhibition of CYP2C8 (unknown origin) at 2 ul pre-incubated for 30 mins in presence or absence of NADPH incubated for 10 mins by LC/MS analysis
Cytochrome P450 2D6 [16] = target: T5, Cytochrome P450 2D6; assay: Time-dependent inhibition of CYP2D6 (unknown origin) at 2 ul pre-incubated for 30 mins in presence or absence of NADPH incubated for 10 mins by LC/MS analysis
Cytochrome P450 3A4 [17] = target: T1, Cytochrome P450 3A4; assay: Time-dependent inhibition of CYP3A4 (unknown origin) at 2 ul pre-incubated for 30 mins in presence or absence of NADPH incubated for 10 mins by LC/MS analysis
[18] = Apparent permeability across apical to basolateral side in dog MDCKII-MDR1 cells; conditions: MDCK-MDR1
[19] = Apparent permeability across basolateral side to apical side in dog MDCKII-MDR1 cells; conditions: MDCK-MDR1
[20] = Cardiotoxicity in Patient-specific iPSC-derived cardiomyocytes assessed as decrease in maximum depolarization rate of action potential at 0.03 to 3 uM by patch clamp assay; conditions: human, cardiac muscle cell
[21] = Cardiotoxicity in Patient-specific iPSC-derived cardiomyocytes assessed as decrease in spontaneous beating of myocardial cell at 3 uM by patch clamp assay; conditions: human, cardiac muscle cell
[22] = Cardiotoxicity in Patient-specific iPSC-derived cardiomyocytes assessed as decrease in spontaneous beating of myocardial cell at 10 uM by patch clamp assay; conditions: human, cardiac muscle cell
[23] = Cardiotoxicity in Patient-specific iPSC-derived cardiomyocytes assessed as decrease in action potential duration by patch clamp assay; assay type: toxicity, cell-based; conditions: human, cardiac muscle cell
[24] = Half life in Sprague-Dawley rat at 2 mg/kg, iv measured upto 24 hrs by LC/MS/MS analysis; conditions: in vivo
[25] = Half life in Sprague-Dawley rat at 10 mg/kg, po measured upto 24 hrs by LC/MS/MS analysis; conditions: in vivo
[26] = Half life in overnight fasted Beagle dog at 20 mg/kg, po measured upto 24 hrs by LC/MS/MS analysis; conditions: in vivo
[27] = rat, in vivo, iv, 2 mg/kg, 24 h
[28] = rat, in vivo, po, 10 mg/kg, 24 h
[29] = rat, in vivo, iv, 2 mg/kg, 24 h; remark: listed apart in the source
[30] = rat, in vivo, po, 10 mg/kg, 24 h; remark: listed apart in the source
[31] = rat, in vivo, iv, 2 mg/kg, 24 h; remark: listed apart in the source
[32] = rat, in vivo, po, 10 mg/kg, 24 h; remark: listed apart in the source
[33] = dog, in vivo, po, 20 mg/kg, 24 h
[34] = dog, in vivo, po, 20 mg/kg, 24 h; remark: listed apart in the source
[35] = dog, in vivo, po, 20 mg/kg, 24 h; remark: listed apart in the source
in vivo [36] = conditions: ICR, mouse, po, 50 mg/kg
in vivo [37] = conditions: ICR, mouse, po, 50 mg/kg; remark: listed apart in the source
in vivo [38] = conditions: ICR, mouse, po, 50 mg/kg; remark: listed apart in the source
in vivo [39] = conditions: Sprague-Dawley, rat, po, 10 mg/kg
in vitro [40] = conditions: human, liver microsomes
in vitro [41] = conditions: rat, liver microsomes
in vitro [42] = conditions: mouse, liver microsomes
in vitro [43] = conditions: dog, liver microsomes
in vitro [44] = conditions: rhesus monkey, liver microsomes

T1 sequence (P08684 whole entry): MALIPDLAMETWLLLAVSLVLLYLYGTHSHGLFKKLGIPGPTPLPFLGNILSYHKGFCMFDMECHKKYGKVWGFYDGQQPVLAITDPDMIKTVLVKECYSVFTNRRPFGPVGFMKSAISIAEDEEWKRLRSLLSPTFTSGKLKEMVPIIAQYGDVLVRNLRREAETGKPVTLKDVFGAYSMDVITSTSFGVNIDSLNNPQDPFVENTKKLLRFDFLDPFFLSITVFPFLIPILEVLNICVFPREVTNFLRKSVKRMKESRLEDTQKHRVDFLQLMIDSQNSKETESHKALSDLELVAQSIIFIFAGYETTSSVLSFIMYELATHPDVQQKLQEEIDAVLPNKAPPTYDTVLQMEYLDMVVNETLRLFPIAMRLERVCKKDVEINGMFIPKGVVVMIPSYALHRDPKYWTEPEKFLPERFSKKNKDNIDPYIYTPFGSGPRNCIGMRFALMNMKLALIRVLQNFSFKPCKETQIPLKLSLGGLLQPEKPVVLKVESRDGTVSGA
T3 sequence (P11712 whole entry): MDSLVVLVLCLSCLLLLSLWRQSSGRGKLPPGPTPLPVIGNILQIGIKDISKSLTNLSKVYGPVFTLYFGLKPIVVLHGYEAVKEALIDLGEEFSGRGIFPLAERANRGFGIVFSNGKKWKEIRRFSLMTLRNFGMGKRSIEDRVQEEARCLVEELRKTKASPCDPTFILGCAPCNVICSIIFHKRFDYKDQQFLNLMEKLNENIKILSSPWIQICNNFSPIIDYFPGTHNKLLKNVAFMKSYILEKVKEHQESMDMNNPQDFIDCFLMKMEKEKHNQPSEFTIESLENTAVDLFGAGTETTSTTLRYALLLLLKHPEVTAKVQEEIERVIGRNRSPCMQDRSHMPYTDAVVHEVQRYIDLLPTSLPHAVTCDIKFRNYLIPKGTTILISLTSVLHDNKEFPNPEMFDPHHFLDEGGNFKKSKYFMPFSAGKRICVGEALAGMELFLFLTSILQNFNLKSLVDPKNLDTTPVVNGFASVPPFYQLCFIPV
T5 sequence (P10635 whole entry): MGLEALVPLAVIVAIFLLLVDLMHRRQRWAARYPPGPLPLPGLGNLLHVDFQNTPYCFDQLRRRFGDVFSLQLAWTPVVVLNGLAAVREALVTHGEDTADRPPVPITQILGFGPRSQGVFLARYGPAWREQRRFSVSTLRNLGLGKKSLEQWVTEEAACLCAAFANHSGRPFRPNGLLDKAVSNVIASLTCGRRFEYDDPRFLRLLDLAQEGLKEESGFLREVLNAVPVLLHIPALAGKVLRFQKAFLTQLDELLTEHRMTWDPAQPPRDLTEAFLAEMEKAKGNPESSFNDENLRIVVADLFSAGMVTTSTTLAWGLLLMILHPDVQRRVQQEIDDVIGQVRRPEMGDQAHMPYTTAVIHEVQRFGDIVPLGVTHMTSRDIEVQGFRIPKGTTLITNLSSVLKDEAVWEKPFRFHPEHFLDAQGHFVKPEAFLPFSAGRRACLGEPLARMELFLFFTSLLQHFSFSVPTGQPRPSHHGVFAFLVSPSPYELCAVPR

SMILES: Cc1nc(N[C@H](C)c2cccc(C(F)F)c2F)c2cc3c(cc2n1)OCC[C@H]1CN(CC(F)(F)F)CCN31
- k el at 24 h [1]: 4.75e-05 s⁻¹
- half-life at 24 h [2]: 4.13 h
- MRT at 24 h [3]: 5.5 h
- Activity [4]: Non-Toxic
- Activity [5]: Non-Toxic
- fraction unbound at 1 h, 2 µM [6]: 0.001
- fraction unbound at 1 h, 2 µM [7]: 0.001
- fraction unbound at 1 h, 2 µM [8]: 0.002
- fraction unbound at 1 h, 2 µM [9]: 0.001
- IC50 (Cytochrome P450 3A4 [10]): > 100 µM
- IC50 (Cytochrome P450 1A2): > 100 µM
- IC50 (Cytochrome P450 2C9 [11]): 15.4 µM
- IC50 (Cytochrome P450 2C8 [12]): 45.2 µM
- IC50 (Cytochrome P450 2D6 [13]): 6.1 µM
- IC50 (Cytochrome P450 2C9 [14]): 14.6 µM
- IC50 (Cytochrome P450 2C8 [15]): 39.1 µM
- IC50 (Cytochrome P450 2D6 [16]): 4.3 µM
- IC50 (Cytochrome P450 3A4 [17]): > 100 µM
- Papp A→B [18]: 0.26 ×10⁻⁶ cm/s
- Papp B→A [19]: 0.78 ×10⁻⁶ cm/s
- Activity [20]: Toxic
- Activity [21]: Toxic
- Activity [22]: Toxic
- Activity [23]: Toxic
- t1/2 [24]: 5.35 h
- t1/2 [25]: 2 h
- t1/2 [26]: 6.74 h
- Tmax [27]: 4.8 min
- Tmax [28]: 2.33 h
- Cmax [29]: 518 ng/mL
- Cmax [30]: 109 ng/mL
- AUC [31]: 596 ng·h/mL
- AUC [32]: 563 ng·h/mL
- Tmax [33]: 1.17 h
- Cmax [34]: 232 ng/mL
- AUC [35]: 1322 ng·h/mL
- Tmax at 24 h (in vivo [36]): 0.833 h
- Cmax at 24 h (in vivo [37]): 2260 ng/mL
- AUC at 24 h (in vivo [38]): 19900 ng·h/mL
- bioavailability at 24 h (in vivo [39]): 18.8%
- CLint scaled at 1 h, 1 µM (in vitro [40]): 442 mL/min/kg
- CLint scaled at 1 h, 1 µM (in vitro [41]): 516 mL/min/kg
- CLint scaled at 1 h, 1 µM (in vitro [42]): 436 mL/min/kg
- CLint scaled at 1 h, 1 µM (in vitro [43]): 12 mL/min/kg
- CLint scaled at 1 h, 1 µM (in vitro [44]): 396 mL/min/kg
